Read-outs that look alike come from different tables or passages of the source. No end group written: not given here.
How the values were obtained:
[1] = tested on: guinea pig basilar artery; test: Recording of tension: relaxation of isolated guinea pig basilar artery contracted with prostaglandin F2α; conditions: for effect on anandamide-induced relaxation: capsaicin 10 μM pre-treatment, 8-37 CGRP 2 μM; for Emax / EC50: Cavia porcellus; for Emax: read-out: Emax of relaxation, guinea pig basilar artery; for EC50: read-out: pEC50 of relaxation, guinea pig basilar artery (converted)
[2] = tested on: rat hepatic artery; test: Recording of tension: relaxation of isolated rat hepatic artery contracted with phenylephrine; conditions: for effect on anandamide-induced relaxation / effect on AM404-induced relaxations: capsaicin 10 μM pre-treatment; for effect on anandamide-induced relaxation: 8-37 CGRP 2 μM; for effect on AM404-induced relaxations: 8-37 CGRP 3 μM, SR141716A 0.3 μM; for EC50: read-out: pEC50 of relaxation (converted); for vasodilator response (relaxation): α-latrotoxin 1 nM
[3] = tested on: rat mesenteric artery; test: Recording of tension: relaxation of isolated rat mesenteric artery contracted with phenylephrine; conditions: for effect on anandamide-induced relaxation / effect on relaxant effects of 1-arachidonylglycerol and 2-arachidonylglycerol: capsaicin 10 μM pre-treatment; for effect on anandamide-induced relaxation: 8-37 CGRP 2 μM; for effect on relaxant effects of 1-arachidonylglycerol and 2-arachidonylglycerol: rat mesenteric arteries, capsazepine 1 μM
[4] = target: cannabinoid CB1 receptors (Homo sapiens, UniProt P21554); conditions: cited from earlier work
cannabinoid CB1 receptors, sequence (P21554 whole entry): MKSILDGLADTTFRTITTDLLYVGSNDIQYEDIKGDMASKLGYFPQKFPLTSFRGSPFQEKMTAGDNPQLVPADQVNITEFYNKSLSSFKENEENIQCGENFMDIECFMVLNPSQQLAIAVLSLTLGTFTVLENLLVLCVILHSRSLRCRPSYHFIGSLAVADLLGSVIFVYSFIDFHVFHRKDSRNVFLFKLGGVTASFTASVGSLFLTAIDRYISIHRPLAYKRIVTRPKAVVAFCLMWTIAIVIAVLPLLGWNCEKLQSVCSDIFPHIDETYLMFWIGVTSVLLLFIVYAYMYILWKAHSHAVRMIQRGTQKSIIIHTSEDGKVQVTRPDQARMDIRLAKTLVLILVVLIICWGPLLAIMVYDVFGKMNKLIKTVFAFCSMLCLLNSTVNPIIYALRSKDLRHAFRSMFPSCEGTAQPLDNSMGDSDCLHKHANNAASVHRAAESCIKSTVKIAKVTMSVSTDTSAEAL

[5] = tested on: CGRP release from perivascular sensory nerves; test: Measurement of CGRP release from rat hepatic artery segments (radioimmunoassay)
Method: Measurement of CGRP and cyclic AMP.
After 10 minutes the segments were removed and the physiological salt solution was evaporated.

[6] = tested on: cyclic AMP content; test: Measurement of cyclic AMP content in rat hepatic artery segments
[7] = target: T1, vanilloid receptors (Rattus norvegicus, UniProt O35433); test: Schild analysis of capsazepine antagonism of relaxation in rat hepatic artery; conditions: for slope of the Schild regression line: mean±SEM; for Kb: pA2 (Schild plot)
T1 construct: To determine whether native vanilloid receptors might be involved in the action of anandamide; from tissue; host or cells: hepatic artery ring segments from female Wistar-Hannover rats
T1 sequence (O35433 whole entry): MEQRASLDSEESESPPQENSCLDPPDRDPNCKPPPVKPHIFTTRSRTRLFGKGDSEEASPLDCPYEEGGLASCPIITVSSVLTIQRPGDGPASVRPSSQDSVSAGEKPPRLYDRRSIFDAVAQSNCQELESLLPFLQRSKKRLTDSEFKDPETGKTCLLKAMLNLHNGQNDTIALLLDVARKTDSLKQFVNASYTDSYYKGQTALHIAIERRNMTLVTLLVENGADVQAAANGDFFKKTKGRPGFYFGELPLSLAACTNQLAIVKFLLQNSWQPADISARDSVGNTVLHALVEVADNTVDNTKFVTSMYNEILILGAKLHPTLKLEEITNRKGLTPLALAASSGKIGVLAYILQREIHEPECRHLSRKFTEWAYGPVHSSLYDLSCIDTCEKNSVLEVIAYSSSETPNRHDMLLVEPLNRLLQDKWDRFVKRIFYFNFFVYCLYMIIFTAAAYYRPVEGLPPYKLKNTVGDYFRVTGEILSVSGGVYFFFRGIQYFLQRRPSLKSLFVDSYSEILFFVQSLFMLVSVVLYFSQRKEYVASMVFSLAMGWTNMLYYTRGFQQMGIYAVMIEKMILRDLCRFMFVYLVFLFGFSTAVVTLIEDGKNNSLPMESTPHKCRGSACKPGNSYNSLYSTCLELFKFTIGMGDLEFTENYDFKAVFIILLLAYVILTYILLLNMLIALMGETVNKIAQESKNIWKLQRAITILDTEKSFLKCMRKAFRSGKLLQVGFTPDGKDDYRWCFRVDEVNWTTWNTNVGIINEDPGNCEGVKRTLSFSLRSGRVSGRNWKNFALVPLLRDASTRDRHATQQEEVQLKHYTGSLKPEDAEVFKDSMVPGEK
Method: Recording of tension. Experiments were performed on hepatic (400 μm outer diameter) and mesenteric (200 μm outer diameter) arteries from female Wistar-Hannover rats (200-250 g) and on basilar arteries (300 μm outer diameter) from male guinea pigs. […] All experiments were performed in the presence of N^G-nitro-L-arginine (0.3 mM) and indomethacin (10 μM) to eliminate any contribution of nitric oxide and cyclooxygenase products, respectively (refs. 38, 23). Relaxant responses were studied in preparations contracted with phenylephrine (rat hepatic and mesenteric arteries) and prostaglandin F2α (guinea pig basilar artery) (refs. 38, 43). When stable contractions were obtained, agonists were added cumulatively to determine concentration-response relationships.
Some preparations were pre-treated with capsaicin for 1 hour followed by washout for 20 minutes. Each vessel segment was exposed to only one treatment. The experiments were carried out with the approval of the local ethics committee.
Calculations and statistics. Relaxations are expressed as percentage reversal of the prevailing contraction (100% indicates a complete reversal to basal tension). […] Data are presented as means±s.e.mean (vertical lines in figures), and n indicates the number of vascular segments (animals) examined. pA2 and slope values of the Shild plots were estimated according to the Jackknife method (ref. 46). Statistical analysis was performed by using Student's t-test (two-tailed), Mann-Whitney U-test, or analysis of variance (ANOVA) on log transformed values (cyclic AMP) followed by Bonferroni Dunn's post hoc test (Statview 4.12). Statistical significance was accepted when P<0.05.

[8] = guinea pig basilar artery, capsazepine 3 μM
[9] = rat mesenteric artery, capsazepine 3 μM
[10] = Rattus norvegicus, control (agonist alone)
[11] = guinea pig basilar artery, 10 μM
[12] = segments pre-treated with capsaicin (10 μM)
[13] = in presence of SR141716A (0.3 μM)
[14] = Rattus norvegicus, in presence of SR141716A (0.3 μM)

Molecule: 8-37 CGRP: selective CGRP receptor antagonist (VTHRLAGLLSRSGGVVKNNFVPTNVGSKAF; ends and bridges not checked; UniProt P06881 90-119, looked up, fragment)
- effect on anandamide-induced relaxation [1, 8]: inhibited
- effect on anandamide-induced relaxation ([2]; capsazepine 3 μM): inhibited
- effect on AM404-induced relaxations ([2]; capsazepine 3 μM): abolished
- effect on anandamide-induced relaxation [3, 9]: inhibited

Molecule: CCCCC/C=C\C/C=C\C/C=C\C/C=C\CCCCOCC(O)CO (stereo not shown) [1-arachidonylglycerol]
- vasodilator action ([3]; rat mesenteric arteries contracted with phenylephrine): vasodilators

Molecule: CCCCCC=CCC=CCC=CCC=CCCCC(=O)Nc1ccc(O)cc1 [AM404, N-(4-hydroxyphenyl)-5,8,11,14-eicosatetraenamide]
- Ki [4]: 1760 nM
- vasodilator potency compared to anandamide [2]: ~10 times
- Emax [2, 10]: 97 ± 2%
- EC50 [2, 10]: 39.8 nM
- effect on anandamide-induced relaxation ([2]; capsazepine 3 μM): inhibited this response
- pEC50 of relaxation ([2]; control (agonist alone)): 7.3±0.2
- pEC50 of relaxation ([2]; in presence of capsazepine (3 μM)): 6.4±0.2

Molecule: CCCCCCC(C)(C)c1ccc([C@@H]2C[C@H](O)CC[C@H]2CCCO)c(O)c1 [CP 55,940]
- relaxation at 10 μM [1, 11]: significant relaxation
- relaxation after pre-treatment with capsaicin ([1]; guinea pig basilar artery, 10 μM, capsaicin (10 μM) pre-treatment): resistant to pre-treatment with capsaicin
- relaxation at 10 μM ([2]; 10 μM): significant relaxation
- relaxation after pre-treatment with capsaicin ([2]; 10 μM, capsaicin (10 μM) pre-treatment): resistant to pre-treatment with capsaicin

Molecule: CCCCCCC(C)(C)c1cc(O)c2c(c1)OC(C)(C)[C@@H]1CC=C(CO)C[C@@H]21 [HU 210]
- relaxation ([1]; guinea pig basilar artery): did not produce any relaxation
- relaxation [2]: did not produce any relaxation

Molecule: Cc1c(C(=O)NN2CCCCC2)nn(-c2ccc(Cl)cc2Cl)c1-c1ccc(Cl)cc1.Cl [SR141716A, N-(piperidin-1-yl)-5-(4-chlorophenyl)-1-(2,4-dichlorophenyl)-4-methyl-1H-pyrazole-3-carboxamide hydrochloride]
- effect on AM404-induced relaxations ([2]; capsazepine 3 μM): without effect

Molecule: Cc1c(C(=O)c2cccc3ccccc23)c2cccc3c2n1[C@H](CN1CCOCC1)CO3 [WIN 55,212-2]
- relaxation ([1]; guinea pig basilar artery): did not produce any relaxation
- relaxation [2]: did not produce any relaxation

Molecule: CCCCC/C=C\C/C=C\C/C=C\C/C=C\CCCC(=O)NCCO [anandamide, arachidonylethanolamide]
- release of CGRP ([5]; anandamide 10 μM, 10 minute exposure): significant release of CGRP
- release of CGRP after capsaicin pre-treatment [5, 12]: absent
- Emax ([1]; control (agonist alone)): 92 ± 3%
- Emax [1, 13]: 91 ± 2%
- EC50 ([1]; control (agonist alone)): 955 nM
- EC50 [1, 13]: 776 nM
- relaxation at 10 μM [1, 11]: completely relaxed
- tissue content of cyclic AMP ([6]; anandamide 10 μM or CGRP 10 nM, 5 minutes): increase in tissue content of cyclic AMP
- tissue content of cyclic AMP after capsaicin pre-treatment [6, 12]: absent
- relaxation at 10 μM ([2]; 10 μM): completely relaxed
- Emax [2, 10]: 100 ± 1%
- EC50 [2, 10]: 355 nM
- Emax [2, 14]: 97 ± 1%
- pEC50 of relaxation ([2]; control (agonist alone)): 6.49±0.01
- pEC50 of relaxation [2, 13]: 6.44±0.12

Molecule: CCCCC/C=C\C/C=C\C/C=C\C/C=C\CCCC(=O)O [arachidonic acid]
- relaxation at 10 μM [1, 11]: inactive
- relaxation at 10 μM ([2]; 10 μM): inactive

Molecule: COc1cc(CNC(=O)CCCC/C=C/C(C)C)ccc1O [capsaicin]
- relaxation at 10 μM [1, 11]: completely relaxed
- effect on anandamide-induced relaxation [1, 8]: abolished
- relaxation at 10 μM ([2]; 10 μM): completely relaxed
- Emax [2, 10]: 99 ± 1%
- Emax ([2]; Rattus norvegicus, in presence of SR141716A (10 μM)): 90 ± 3%
- effect on anandamide-induced relaxation ([2]; capsazepine 3 μM): abolished
- effect on AM404-induced relaxations ([2]; capsazepine 3 μM): abolished
- EC50 ([2]; control (agonist alone)): 4.27 nM
- pEC50 of relaxation ([2]; in presence of SR141716A (10 μM)): 7.42±0.12
- effect on relaxant effects of 1-arachidonylglycerol and 2-arachidonylglycerol [3]: abolished
- effect on anandamide-induced relaxation [3, 9]: abolished

Molecule: Oc1cc2c(cc1O)CN(C(=S)NCCc1ccc(Cl)cc1)CCC2 [capsazepine]
- effect on anandamide-induced release of CGRP ([5]; capsazepine 10 μM): inhibited
- effect on anandamide-induced relaxation [1, 8]: significantly inhibited
- effect on capsaicin-induced relaxation [1, 8]: significantly inhibited
- effect on anandamide-induced relaxation ([2]; capsazepine 3 μM): significantly inhibited
- effect on AM404-induced relaxations ([2]; capsazepine 3 μM): significant right-ward shift
- effect on capsaicin-induced relaxation ([2]; capsazepine 3 μM): significantly inhibited
- effect on relaxant effects of 1-arachidonylglycerol and 2-arachidonylglycerol [3]: inhibited
- effect on anandamide-induced relaxation [3, 9]: significantly inhibited
- effect on capsaicin-induced relaxation [3, 9]: significantly inhibited
- slope of the Schild regression line ([7]; capsaicin as agonist): 2.12±0.36
- slope of the Schild regression line ([7]; methanandamide as agonist): 2.41±0.32
- Kb ([7]; capsaicin as agonist): 575 nM
- Kb ([7]; methanandamide as agonist): 457 nM

Molecule: NCCO [ethanolamine]
- relaxation at 10 μM [1, 11]: inactive
- relaxation at 10 μM ([2]; 10 μM): inactive

Molecule: CCCCC/C=C\C/C=C\C/C=C\C/C=C\CCCC(=O)N[C@H](C)CO [methanandamide]
- Emax [2, 10]: 99 ± 1%
- EC50 [2, 10]: 316 nM
- Emax [2, 14]: 99 ± 1%
- Emax of relaxation ([2]; control (agonist alone)): 97±1%
- pEC50 of relaxation ([2]; control (agonist alone)): 6.53±0.08
- pEC50 of relaxation [2, 13]: 6.30±0.04

Molecule: CCCCCCCCCCCCCCCC(=O)NCCO [palmitylethanolamide]
- relaxation ([1]; guinea pig basilar artery): did not produce any relaxation
- relaxation [2]: did not produce any relaxation

B1: α-latrotoxin (protein, UniProt P23631 21-1199, looked up)
Alpha-latrotoxin-Lt1a: EGEDLTLEEKAEICSELELQQKYVDIASNIIGDLSSLPIAGKIAGTIAAAAMTATHVASGRLDIEQTLLGCSDLPFDQIKEVLENRFNEIDRKLDSHSAALEEITKLVEKSISVVEKTRKQMNKRFDEVMKSIQDAKVSPIISKINNFARYFDTEKERIRGLKLNDYILKLEEPNGILLHFKESRTPTDDSLQAPLFSIIEEGYAVPKSIDDELAFKVLYALLYGTQTYVSVMFFLLEQYSFLANHYYEKGYLEKYDEYFNSLNNVFLDFKSSLVGTGTSNNEGLLDRVLQVLMTVKNSEFLGLEKNGVDEMLNEKINLFNKIKEEIEGKQKMTLSETPENFAQISFDKDITTPIGDWRDGREVRYAVQYASETLFSKISHWSDPVSVREKACPTLRMPVDQTRRNVLVFRKFDSSKPQLVGEITPYLSNFIDIDRDLYNAASNPDSAVGFKEFTKLNYDGANIRATFDHGRTVFHAAAKSGNDKIMFGLTFLAKSTELNQPDKKGYTPIHVAADSGNAGIVNLLIQRGVSINSKTYHFLQTPLHLAAQRGFVTTFQRLMESPEININERDKDGFTPLHYAIRGGERILEAFLNQISIDVNAKSNTGLTPFHLAIIKNDWPVASTLLGSKKVDINAVDENNITALHYAAILGYLETTKQLINLKEINANVVSSPGLLSALHYAILYKHDDVASFLMRSSNVNVNLKALGGITPLHLAVIQGRKQILSLMFDIGVNIEQKTDEKYTPLHLAAMSKYPELIQILLDQGSNFEAKTNSGATPLHLATFKGKSQAALILLNNEVNWRDTDENGQMPIHGAAMTGLLDVAQAIISIDATVVDIEDKNSDTPLNLAAQNSHIDVIKYFIDQGADINTRNKKGLAPLLAFSKKGNLDMVKYLFDKNANVYIADNDGMNFFYYAVQNGHLNIVKYAMSEKDKFEWSNTDNNRRDECPNEECAISHFAVCDAVQFDRIEIVKYFVGTLGNFAICGPLHQAARYGHLDIVKYLVEEEFLSVDGSKTDTPLCYASENGHFTVVQYLVSNGAKVNHDCGNGMTAIDKAITKNHLQVVQFLAANGVDFRRKNSRGTTPFLTAVAENALHIAEYLIREKRQDININEQNVDKDTALHLAVYYKNLQMIKLLIKYGIDVTIRNAYDKTALDIAIDAKFSNIVEYLKTKSGKFRR
- vasodilator response (relaxation) ([2]; CGRP 8-37 (2 μM)): −8±3%
- vasodilator response (relaxation) ([2]; capsaicin pre-treatment): −16±8%
- vasodilator response (relaxation) ([2]; capsazepine (3 μM)): 93±2%
- vasodilator response (relaxation) ([2]; control): 98±1%
